Experimental data as given in ChEMBL document CHEMBL5365528, “Expanding the Role of Boron in New Drug Chemotypes: Properties, Chemistry, Pharmaceutical Potential of Hemiboronic Naphthoids” (J Med Chem, 2023).
≈ marks a conversion by molar mass, not a printed value. Calls of active or inactive are those of the source. The calls are words filed in the database; no cut-off is given here.

Tests used:
[1] = test system: Candida albicans; test: Antifungal activity against Candida albicans UAMH 3489 assessed as inhibition of fungal growth incubated for 24 hrs; assay type: functional
[2] = test system: Staphylococcus aureus; test: Antibacterial activity against Staphylococcus aureus ATCC 43300 assessed as inhibition of bacterial growth incubated for 18 hrs; assay type: functional
[3] = Kinetic solubility of the compound in PBS buffer at pH 7.4 measured after 2 hrs by LC-MS/MS analysis; assay type: physicochemical; details: read-out: Kinetic_solubility
[4] = Stability of the compound in d6-DMSO with drop of D2O and measured for >1 month at room temperature by NMR spectroscopy; assay type: physicochemical; details: time > 1 months, read-out: Stability
[5] = Protein binding in human plasma at 1 uM measured after 6 hrs by LC-MS/MS analysis; assay type: ADME, cell-free; details: read-out: PPB (converted)
[6] = Lipophilicity, log P of the compound in octanol/water by RP-HPLC analysis; assay type: physicochemical
[7] = Half life in human hepatocytes at 1 uM by LC-MS/MS analysis; assay type: ADME, cell-based, Hepatocyte
[8] = Lipophilicity, log D of the compound in Octanol/PBS buffer at pH 7.4 measured after 1 hr by LC-MS/MS analysis; assay type: physicochemical
[9] = Hepatic blood flow in human; assay type: ADME
[10] = Dissociation constant, pKa of the compound in aqueous phosphate buffer with 3 to 4% DMSO; assay type: physicochemical
[11] = Clearance in human hepatocytes at 1 uM measured per million cells by LC-MS/MS analysis; assay type: ADME, cell-based, Hepatocyte; details: read-out: CLH
[12] = Permeability of the compound across basolateral to apical membrane in human Caco-2 cells at 10 uM measured for 90 mins by LC-MS/MS analysis; assay type: ADME, cell-based
[13] = Permeability of the compound across apical to basolateral membrane in human Caco-2 cells at 10 uM measured for 90 mins by LC-MS/MS analysis; assay type: ADME, cell-based
[14] = Efflux ratio of permeability across basolateral to apical membrane over apical to basolateral membrane in human Caco-2 cells at 10 uM measured for 90 mins by LC-MS/MS analysis; assay type: ADME, cell-based
[15] = Dissociation constant, pKa of the compound in 1:1 CH3CN/aqueous phosphate buffer; assay type: physicochemical
[16] = biological target: T1, Poly [ADP-ribose] polymerase 1 (Homo sapiens, UniProt P09874); test: Inhibition of N-terminal GST-tagged full length human PARP1 (2 to 1014 residues) expressed in baculovirus-infected Sf9 cells using histone as substrate incubated for 60 mins in presence of activated DNA, NAD+, NAD+-biotin by luminescence based analysis
T1 sequence (P09874 whole entry, the tested form may be a part): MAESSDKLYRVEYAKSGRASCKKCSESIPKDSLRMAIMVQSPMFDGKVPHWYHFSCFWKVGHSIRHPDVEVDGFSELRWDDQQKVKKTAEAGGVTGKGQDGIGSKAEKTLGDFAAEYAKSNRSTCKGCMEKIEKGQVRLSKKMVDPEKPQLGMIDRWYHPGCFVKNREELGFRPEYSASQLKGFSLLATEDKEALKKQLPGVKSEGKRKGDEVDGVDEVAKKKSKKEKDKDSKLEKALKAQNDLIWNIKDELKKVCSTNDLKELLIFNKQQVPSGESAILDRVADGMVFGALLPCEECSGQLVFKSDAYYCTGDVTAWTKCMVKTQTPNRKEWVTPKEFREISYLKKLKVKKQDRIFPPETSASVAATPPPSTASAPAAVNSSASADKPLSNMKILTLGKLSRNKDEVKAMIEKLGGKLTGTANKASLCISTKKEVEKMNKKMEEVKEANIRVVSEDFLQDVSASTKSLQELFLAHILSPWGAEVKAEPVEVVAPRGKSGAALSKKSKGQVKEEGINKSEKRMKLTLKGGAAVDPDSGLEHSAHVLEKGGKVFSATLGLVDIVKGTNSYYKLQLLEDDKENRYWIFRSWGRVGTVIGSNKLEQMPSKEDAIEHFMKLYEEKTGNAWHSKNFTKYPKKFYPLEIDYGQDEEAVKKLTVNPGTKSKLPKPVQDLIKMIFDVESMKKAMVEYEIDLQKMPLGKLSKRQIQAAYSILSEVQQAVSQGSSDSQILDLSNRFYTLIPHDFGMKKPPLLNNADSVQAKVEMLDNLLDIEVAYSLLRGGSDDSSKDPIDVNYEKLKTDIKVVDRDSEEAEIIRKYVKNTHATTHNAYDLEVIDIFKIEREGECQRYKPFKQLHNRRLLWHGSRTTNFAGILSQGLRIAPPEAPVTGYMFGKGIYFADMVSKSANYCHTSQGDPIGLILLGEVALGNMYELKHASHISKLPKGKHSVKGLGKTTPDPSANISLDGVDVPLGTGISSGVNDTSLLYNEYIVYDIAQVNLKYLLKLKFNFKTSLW

[17] = biological target: T2, Poly [ADP-ribose] polymerase 2 (Homo sapiens, UniProt Q9UGN5); test: Inhibition of N-terminal GST-tagged human PARP2 (2 to 583 residues) expressed in baculovirus-infected Sf9 cells using histone as substrate incubated for 60 mins in presence of activated DNA, NAD+, NAD+-biotin by luminescence based analysis
T2 sequence (Q9UGN5 whole entry, the tested form may be a part): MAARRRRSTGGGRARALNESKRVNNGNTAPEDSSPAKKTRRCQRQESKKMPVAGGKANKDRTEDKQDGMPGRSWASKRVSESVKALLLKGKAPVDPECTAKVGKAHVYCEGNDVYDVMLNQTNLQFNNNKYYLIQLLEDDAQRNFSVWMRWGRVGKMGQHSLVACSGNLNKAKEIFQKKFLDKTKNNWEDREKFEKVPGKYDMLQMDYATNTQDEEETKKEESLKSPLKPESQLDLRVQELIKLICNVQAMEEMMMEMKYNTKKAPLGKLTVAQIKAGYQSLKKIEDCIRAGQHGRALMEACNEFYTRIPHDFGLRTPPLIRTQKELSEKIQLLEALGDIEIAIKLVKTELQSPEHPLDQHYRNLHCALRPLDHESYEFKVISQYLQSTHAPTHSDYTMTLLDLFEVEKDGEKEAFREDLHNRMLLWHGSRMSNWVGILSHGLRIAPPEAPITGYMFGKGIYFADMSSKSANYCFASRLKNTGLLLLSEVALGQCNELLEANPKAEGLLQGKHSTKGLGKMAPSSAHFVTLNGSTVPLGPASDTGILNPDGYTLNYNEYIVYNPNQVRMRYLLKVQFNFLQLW

[18] = biological target: T2, Poly [ADP-ribose] polymerase 2; test: Inhibition of N-terminal GST-tagged human PARP2 (2 to 583 residues) expressed in baculovirus-infected Sf9 cells using histone as substrate at 1000 nM incubated for 60 mins in presence of activated DNA, NAD+, NAD+-biotin by luminescence based analysis
[19] = biological target: T1, Poly [ADP-ribose] polymerase 1; test: Inhibition of N-terminal GST-tagged full length human PARP1 (2 to 1014 residues) expressed in baculovirus-infected Sf9 cells using histone as substrate at 1000 nM incubated for 60 mins in presence of activated DNA, NAD+, NAD+-biotin by luminescence based analysis
[20] = biological target: 3',5'-cyclic-AMP phosphodiesterase 4B (Homo sapiens) (UniProt Q07343); test: Inhibition of N-terminal GST-tagged full length human PDE4B1 (1 to 736 residues) expressed in baculovirus-infected Sf9 cells using FAM-cAMP as substrate at 2 uM measured after 60 mins by fluorescence based analysis
Chain of 3',5'-cyclic-AMP phosphodiesterase 4B (Homo sapiens) (Q07343 whole entry, the tested form may be a part): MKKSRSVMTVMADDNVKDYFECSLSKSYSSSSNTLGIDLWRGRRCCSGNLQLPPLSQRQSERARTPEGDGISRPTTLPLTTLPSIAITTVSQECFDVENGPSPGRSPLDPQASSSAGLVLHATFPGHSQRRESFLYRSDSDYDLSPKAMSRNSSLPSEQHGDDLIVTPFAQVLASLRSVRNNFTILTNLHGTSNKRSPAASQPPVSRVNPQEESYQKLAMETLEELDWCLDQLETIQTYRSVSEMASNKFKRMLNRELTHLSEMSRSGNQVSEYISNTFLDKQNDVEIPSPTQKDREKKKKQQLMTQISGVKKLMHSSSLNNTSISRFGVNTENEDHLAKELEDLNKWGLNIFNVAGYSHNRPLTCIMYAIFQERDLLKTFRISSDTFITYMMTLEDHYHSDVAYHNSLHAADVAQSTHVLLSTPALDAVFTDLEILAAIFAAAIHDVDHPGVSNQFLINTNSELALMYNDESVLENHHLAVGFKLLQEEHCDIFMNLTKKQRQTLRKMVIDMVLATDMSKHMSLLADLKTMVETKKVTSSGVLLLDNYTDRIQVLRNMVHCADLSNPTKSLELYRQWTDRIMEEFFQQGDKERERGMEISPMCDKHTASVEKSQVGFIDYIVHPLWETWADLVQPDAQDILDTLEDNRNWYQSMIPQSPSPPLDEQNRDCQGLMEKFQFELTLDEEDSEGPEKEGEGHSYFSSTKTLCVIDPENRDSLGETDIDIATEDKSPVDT

[21] = test system: Candida albicans; test: Antifungal activity against Candida albicans UAMH 3489 assessed as inhibition of fungal growth at 100 uM incubated for 24 hrs; assay type: functional, organism-based
[22] = biological target: 3',5'-cyclic-AMP phosphodiesterase 4B (Homo sapiens) (UniProt Q07343); test: Inhibition of N-terminal GST-tagged full length human PDE4B1 (1 to 736 residues) expressed in baculovirus-infected Sf9 cells using FAM-cAMP as substrate at 0.1 uM measured after 60 mins by fluorescence based analysis
[23] = test system: Staphylococcus aureus; test: Antibacterial activity against Staphylococcus aureus ATCC 43300 assessed as inhibition of bacterial growth at 100 uM incubated for 18 hrs; assay type: functional, organism-based

## OB1NN=Cc2cc(F)ccc21
[1]
  MIC: > 128 µM

## OB1ON=C(c2ccccc2)c2cc(F)ccc21
[2]
  MIC: 64 µM (≈ 15.4 µg/mL)
[1]
  MIC: 16 µM (≈ 3.86 µg/mL)

## OB1NN=C(c2ccccc2)c2ccccc21
[3]
  solubility kinetic at 2 h: 189 µM (≈ 42.1 µg/mL)
[4]
  remaining at 730 h: > 99%
[5]
  fraction unbound at 6 h, 1 µM: 0.0141
[6]
  logP: 3.72
[7]
  half-life at 1 µM: 1.81 h
[8]
  logD at 1 h: 3.44
[9]
  percent of hepatic blood flow: 65.2%
[10]
  pKa: > 14
[11]
  hepatocyte CLint at 1 µM: 12.8 µL/min/1e6 cells
[12]
  Papp B→A at 1.5 h, 10 µM: 22.1 ×10⁻⁶ cm/s
[13]
  Papp A→B at 1.5 h, 10 µM: 26.9 ×10⁻⁶ cm/s
[14]
  efflux ratio at 1.5 h, 10 µM: 0.82
[15]
  pKa: > 13

## OB1OCc2cc(F)ccc21 [TAVABOROLE]
[3]
  solubility kinetic at 2 h: > 658 µM
[2]
  MIC: 128 µM (≈ 19.4 µg/mL)
[1]
  MIC: 1 µM (≈ 0.152 µg/mL)
[5]
  fraction unbound at 6 h, 1 µM: 0.34
[10]
  pKa: 7.4

## COc1ccc2c(c1)C(c1ccccc1)=NOB2O
[2]
  MIC: 8 µM (≈ 2.02 µg/mL)

## OB1ON=Cc2cc(-c3ccc(C(F)(F)F)cc3)ccc21
[1]
  MIC: 0.125 µM (≈ 0.0364 µg/mL)

## OB1ON=Cc2cc(-c3ccsc3)ccc21
[1]
  MIC: 2 µM (≈ 0.458 µg/mL)

## CCCC(=O)Nc1ccc(OCC(O)CNC(C)C)c(C(C)=O)c1 (stereo unspecified) [ACEBUTOLOL]
[5]
  fraction unbound at 6 h, 1 µM: 0.707

## CN[C@H](CC(C)C)C(=O)N[C@H]1C(=O)N[C@@H](CC(N)=O)C(=O)N[C@H]2C(=O)N[C@H]3C(=O)N[C@H](C(=O)N[C@H](C(=O)O)c4cc(O)cc(O)c4-c4cc3ccc4O)[C@H](O)c3ccc(c(Cl)c3)Oc3cc2cc(c3O[C@@H]2O[C@H](CO)[C@@H](O)[C@H](O)[C@H]2O[C@H]2C[C@](C)(N)[C@H](O)[C@H](C)O2)Oc2ccc(cc2Cl)[C@H]1O [VANCOMYCIN]
[2]
  MIC: 4 µM (≈ 5.8 µg/mL)

## O=C(c1cc(CC2=NOB(O)c3ccccc32)ccc1F)N1CCN(C(=O)C2CC2)CC1
[16]
  IC50: > 1000 nM
[17]
  IC50: > 1000 nM
[18]
  inhibition: 18%
[19]
  inhibition: inactive

## COc1ccc(C2=NOB(O)c3ccccc32)cc1
[2]
  MIC: 64 µM (≈ 16.2 µg/mL)
[1]
  MIC: 32 µM (≈ 8.1 µg/mL)

## CCCSc1ccc2nc(NC(=O)OC)[nH]c2c1 [ALBENDAZOLE]
[8]
  logD at 1 h: 3.57

## CN(C)CCCN1c2ccccc2CCc2ccccc21 [IMIPRAMINE]
[3]
  solubility kinetic at 2 h: 457 µM (≈ 128 µg/mL)

## OC(Cn1cncn1)(Cn1cncn1)c1ccc(F)cc1F [FLUCONAZOLE]
[1]
  MIC: 4 µM (≈ 1.23 µg/mL)

## OB1ON=Cc2cc(-c3ccoc3)ccc21
[1]
  MIC: 2 µM (≈ 0.426 µg/mL)

## N#Cc1ccc(Oc2ccc3c(c2)C(c2ccccc2)=NOB3O)cc1
[20]
  inhibition: 15%

## O=C(c1cc(CC2=NNB(O)c3ccccc32)ccc1F)N1CCN(C(=O)C2CC2)CC1
[16]
  IC50: ~540 nM
[17]
  IC50: 120 nM

## OB1NN=Cc2ccccc21
[3]
  solubility kinetic at 2 h: ≥ 439 µM
[4]
  remaining at 730 h: > 99%
[5]
  fraction unbound at 6 h, 1 µM: 0.082
[21]
  Activity: inactive
[6]
  logP: 1.94
[7]
  half-life at 1 µM: > 6 h
[8]
  logD at 1 h: 2.03
[9]
  percent of hepatic blood flow: < 36.1%
[10]
  pKa: > 14
[11]
  hepatocyte CLint at 1 µM: < 3.9 µL/min/1e6 cells
[12]
  Papp B→A at 1.5 h, 10 µM: 30.6 ×10⁻⁶ cm/s
[13]
  Papp A→B at 1.5 h, 10 µM: 30.1 ×10⁻⁶ cm/s
[14]
  efflux ratio at 1.5 h, 10 µM: 1
[15]
  pKa: > 14

## CC(C)NCC(O)COc1cccc2ccccc12 (stereo unspecified) [PROPRANOLOL]
[13]
  Papp A→B at 1.5 h, 10 µM: 3.4 ×10⁻⁶ cm/s

## N#Cc1ccc(Oc2ccc3c(c2)C=NNB3O)cc1
[20]
  inhibition: 5%

## O=C(Nc1ccc2c(c1)B(O)NN=C2c1ccccc1)c1ccc(F)cc1C(F)(F)F
[2]
  MIC: 64 µM (≈ 27.3 µg/mL)

## N#Cc1ccc(Oc2ccc3c(c2)C=NOB3O)cc1
[21]
  Activity: inactive
[20]
  inhibition: 23%

## N#Cc1ccc(Oc2ccc3c(c2)COB3O)cc1
[22]
  inhibition: 11%

## COc1ccc(C2=NOB(O)c3ccccc32)cc1Br
[2]
  MIC: 16 µM (≈ 5.31 µg/mL)

## O=C(Nc1ccc2c(c1)B(O)NN=C2)c1ccc(F)cc1C(F)(F)F
[23]
  Activity: inactive

## C[C@]12CC[C@H]3[C@@H](CCC4=CC(=O)CC[C@@]43C)[C@@H]1CC[C@@H]2O [TESTOSTERONE]
[7]
  half-life at 1 µM: 0.417 h
[9]
  percent of hepatic blood flow: 89.1%
[11]
  hepatocyte CLint at 1 µM: 60.2 µL/min/1e6 cells

## OB1OCc2ccccc21 [BENZOXABOROLE]
[10]
  pKa: 7.4
[15]
  pKa: 9.2

## OB1NN=Cc2cc(-c3ccc(C(F)(F)F)cc3)ccc21
[21]
  Activity: inactive

## OB1ON=C(c2ccccc2)c2ccccc21
[3]
  solubility kinetic at 2 h: ≥ 403 µM
[4]
  remaining at 730 h: > 99%
[2]
  MIC: 128 µM (≈ 28.5 µg/mL)
[1]
  MIC: 32 µM (≈ 7.14 µg/mL)
[5]
  fraction unbound at 6 h, 1 µM: 0.102
[6]
  logP: 2.6
[7]
  half-life at 1 µM: > 6 h
[8]
  logD at 1 h: 0.71
[9]
  percent of hepatic blood flow: < 36.1%
[10]
  pKa: ~5.5
[11]
  hepatocyte CLint at 1 µM: < 3.9 µL/min/1e6 cells
[12]
  Papp B→A at 1.5 h, 10 µM: 4 ×10⁻⁶ cm/s
[13]
  Papp A→B at 1.5 h, 10 µM: 34.5 ×10⁻⁶ cm/s
[14]
  efflux ratio at 1.5 h, 10 µM: 0.12
[15]
  pKa: 7

## C[C@H]1O[C@@H](O[C@H]2[C@@H](O)C[C@H](O[C@H]3[C@@H](O)C[C@H](O[C@H]4CC[C@@]5(C)[C@H](CC[C@@H]6[C@@H]5C[C@@H](O)[C@]5(C)[C@@H](C7=CC(=O)OC7)CC[C@]65O)C4)O[C@@H]3C)O[C@@H]2C)C[C@H](O)[C@@H]1O [DIGOXIN]
[12]
  Papp B→A at 1.5 h, 10 µM: 13.1 ×10⁻⁶ cm/s
[13]
  Papp A→B at 1.5 h, 10 µM: 1 ×10⁻⁶ cm/s
[14]
  efflux ratio at 1.5 h, 10 µM: 13.4

## OB1ON=Cc2cc(-c3ccc(F)cc3)ccc21
[1]
  MIC: 4 µM (≈ 0.964 µg/mL)

## OB1ON=Cc2cc(F)ccc21
[1]
  MIC: 8 µM (≈ 1.32 µg/mL)
[23]
  Activity: inactive

## OB1ON=Cc2ccccc21
[3]
  solubility kinetic at 2 h: ≥ 386 µM
[4]
  remaining at 730 h: > 99%
[1]
  MIC: 16 µM (≈ 2.35 µg/mL)
[5]
  fraction unbound at 6 h, 1 µM: 0.71
[6]
  logP: 1.23
[7]
  half-life at 1 µM: 0.785 h
[8]
  logD at 1 h: ~0.65
[9]
  percent of hepatic blood flow: 81.2%
[10]
  pKa: 5.5
[11]
  hepatocyte CLint at 1 µM: 29.7 µL/min/1e6 cells
[12]
  Papp B→A at 1.5 h, 10 µM: 4.4 ×10⁻⁶ cm/s
[13]
  Papp A→B at 1.5 h, 10 µM: 33 ×10⁻⁶ cm/s
[14]
  efflux ratio at 1.5 h, 10 µM: 0.13
[15]
  pKa: 7.1

## COC(=O)C1=C(C)NC(C)=C(C(=O)OCCN(C)Cc2ccccc2)C1c1cccc([N+](=O)[O-])c1 (stereo unspecified) [NICARDIPINE]
[3]
  solubility kinetic at 2 h: 4.7 µM (≈ 2.25 µg/mL)

## OB1NN=C(c2ccccc2)c2cc(F)ccc21
[1]
  MIC: > 128 µM
[23]
  Activity: inactive

## OB1ON=Cc2cc(-c3ccccc3)ccc21
[1]
  MIC: 8 µM (≈ 1.78 µg/mL)
